Test results taken from US20230136600A1, “Method and device for screening antigen epitope polypeptide” (priority 2020, published 2023).

System: Balb/c mice
Test: Polypeptide chip-based vaccine immunogenicity scoring system
Type: in vivo
Parameters: key to A2: whether the 95 percentile of the last sampling is increased compared with the end point: Y = rise; N = no rise
Details: for A: 95 percentile grouping number score / B: Mouse performance score: total score = 5; for C1: #A timing-sequence response peptide fragment set / C2: #B vaccine specificity peptide fragment set / C3: Intersection of A and B / C4: Percentage of the intersection in set B / C: Timing-sequence response and specificity score: value of the whole mix
[1] = Embodiment III, polypeptide-KLH
[2] = Embodiment III, polypeptide-KLH, Mix1-10
[3] = Embodiment III, polypeptide-KLH, A*3 + B*2 + C*1
[4] = adjuvant AddaVax, 7 peptides co-immunized in mice
[5] = adjuvant Adju-Phos, 7 peptides co-immunized in mice
[6] = adjuvant Alhydrogel, 7 peptides co-immunized in mice
[7] = adjuvant Imjet Alumn, 7 peptides co-immunized in mice
[8] = adjuvant MA103A, 7 peptides co-immunized in mice
[9] = adjuvant MA103B, 7 peptides co-immunized in mice

Sequence: LQDLKWARFPKS [SEQ ID NO:29]
- B1: D 0-D 14 95 percentile rise in the number of mice [1]: 3
- B2: D 0-D 21 95 percentile rise in the number of mice [1]: 3
- B3: D 14-D 21 95 percentile rise in the number of mice [1]: 2
- B4: D 21-D 28 95 percentile rise in the number of mice [1]: 0
- A1: difference between a highest median and a D 0 median (95 percentile) [2]: 0.10
- A2: whether the 95 percentile of the last sampling is increased compared with the end point [2]: N
- Total single peptide [3]: 16.3
- A: 95 percentile grouping number score [1]: 4
- B: Mouse performance score [1]: 1.9
- C1: #A timing-sequence response peptide fragment set [1]: 257
- C2: #B vaccine specificity peptide fragment set [1]: 682
- C3: Intersection of A and B [1]: 3
- C4: Percentage of the intersection in set B [1]: 0.440
- C: Timing-sequence response and specificity score [1]: 0.5
- 1) 95 percentile grouping number A [4]: 4
- 1) 95 percentile grouping number A1 [4]: 0.055
- 2) Mouse performance B [4]: 3.5
- 2) Mouse performance B1 [4]: 3
- 2) Mouse performance B2 [4]: 5
- 2) Mouse performance B3 [4]: 4
- 3) Timing-sequence response and specificity C [4]: 0
- 3) Timing-sequence response and specificity C1 [4]: 237
- 3) Timing-sequence response and specificity C2 [4]: 1244
- 3) Timing-sequence response and specificity C3 [4]: 0
- 3) Timing-sequence response and specificity C4 [4]: 0.000
- Total single peptide [4]: 19
- 1) 95 percentile grouping number A [5]: 3.5
- 1) 95 percentile grouping number A1 [5]: 0.055
- 2) Mouse performance B [5]: 1.9
- 2) Mouse performance B1 [5]: 3
- 2) Mouse performance B2 [5]: 3
- 2) Mouse performance B3 [5]: 1
- 3) Timing-sequence response and specificity C [5]: 0
- 3) Timing-sequence response and specificity C1 [5]: 203
- 3) Timing-sequence response and specificity C2 [5]: 1244
- 3) Timing-sequence response and specificity C3 [5]: 0
- 3) Timing-sequence response and specificity C4 [5]: 0.000
- Total single peptide [5]: 14.3
- 1) 95 percentile grouping number A [6]: 3
- 1) 95 percentile grouping number A1 [6]: 0.04
- 2) Mouse performance B [6]: 1.9
- 2) Mouse performance B1 [6]: 5
- 2) Mouse performance B2 [6]: 2
- 2) Mouse performance B3 [6]: 0
- 3) Timing-sequence response and specificity C [6]: 1
- 3) Timing-sequence response and specificity C1 [6]: 123
- 3) Timing-sequence response and specificity C2 [6]: 1244
- 3) Timing-sequence response and specificity C3 [6]: 2
- 3) Timing-sequence response and specificity C4 [6]: 0.161
- Total single peptide [6]: 13.3
- 1) 95 percentile grouping number A [7]: 5
- 1) 95 percentile grouping number A1 [7]: 0.08
- 2) Mouse performance B [7]: 2.5
- 2) Mouse performance B1 [7]: 5
- 2) Mouse performance B2 [7]: 3
- 2) Mouse performance B3 [7]: 1
- 3) Timing-sequence response and specificity C [7]: 1
- 3) Timing-sequence response and specificity C1 [7]: 100
- 3) Timing-sequence response and specificity C2 [7]: 1244
- 3) Timing-sequence response and specificity C3 [7]: 3
- 3) Timing-sequence response and specificity C4 [7]: 0.241
- Total single peptide [7]: 20.5
- 1) 95 percentile grouping number A [8]: 5
- 1) 95 percentile grouping number A1 [8]: 0.08
- 2) Mouse performance B [8]: 2.9
- 2) Mouse performance B1 [8]: 5
- 2) Mouse performance B2 [8]: 5
- 2) Mouse performance B3 [8]: 1
- 3) Timing-sequence response and specificity C [8]: 1
- 3) Timing-sequence response and specificity C1 [8]: 260
- 3) Timing-sequence response and specificity C2 [8]: 1244
- 3) Timing-sequence response and specificity C3 [8]: 3
- 3) Timing-sequence response and specificity C4 [8]: 0.241
- Total single peptide [8]: 21.3
- 1) 95 percentile grouping number A [9]: 4.5
- 1) 95 percentile grouping number A1 [9]: 0.065
- 2) Mouse performance B [9]: 3.7
- 2) Mouse performance B1 [9]: 5
- 2) Mouse performance B2 [9]: 5
- 2) Mouse performance B3 [9]: 3
- 3) Timing-sequence response and specificity C [9]: 0
- 3) Timing-sequence response and specificity C1 [9]: 153
- 3) Timing-sequence response and specificity C2 [9]: 1244
- 3) Timing-sequence response and specificity C3 [9]: 0
- 3) Timing-sequence response and specificity C4 [9]: 0.000
- Total single peptide [9]: 20.9

Sequence: MADSNGTIT (SARS-CoV-2) [SEQ ID NO:16]
- A2: whether the 95 percentile of the last sampling is increased compared with the end point (Embodiment II, Combination 2): Y
- B1: D 0-D 14 95 percentile rise in the number of mice (Embodiment II, Combination 2): 5
- B2: D 0-D 21 95 percentile rise in the number of mice (Embodiment II, Combination 2): 1
- B3: D 14-D 21 95 percentile rise in the number of mice (Embodiment II, Combination 2): 0
- B4: D 21-D 28 95 percentile rise in the number of mice (Embodiment II, Combination 2): 2
- Total single peptide (Embodiment II, Combination 2, A*3 + B*2 + C*1): 19.9
- A: 95 percentile grouping number score (Embodiment II, Combination 2): 5
- B: Mouse performance score (Embodiment II, Combination 2): 2.2
- A1: difference between a highest median and a D 0 median (95 percentile) (Embodiment II, mice immunized with Combination 2): 0.2
- B1: D 0-D 14 95 percentile rise in the number of mice [1]: 3
- B2: D 0-D 21 95 percentile rise in the number of mice [1]: 3
- B3: D 14-D 21 95 percentile rise in the number of mice [1]: 1
- B4: D 21-D 28 95 percentile rise in the number of mice [1]: 2
- A1: difference between a highest median and a D 0 median (95 percentile) [2]: 0.08
- A2: whether the 95 percentile of the last sampling is increased compared with the end point [2]: Y
- Total single peptide [3]: 15.2
- A: 95 percentile grouping number score [1]: 3.5
- B: Mouse performance score [1]: 2.1
- C1: #A timing-sequence response peptide fragment set [1]: 511
- C2: #B vaccine specificity peptide fragment set [1]: 364
- C3: Intersection of A and B [1]: 1
- C4: Percentage of the intersection in set B [1]: 0.275
- C: Timing-sequence response and specificity score [1]: 0.5

Sequence: NLDSKVGGNYNY [SEQ ID NO:15]
- B1: D 0-D 14 95 percentile rise in the number of mice [1]: 3
- B2: D 0-D 21 95 percentile rise in the number of mice [1]: 3
- B3: D 14-D 21 95 percentile rise in the number of mice [1]: 1
- B4: D 21-D 28 95 percentile rise in the number of mice [1]: 0
- A1: difference between a highest median and a D 0 median (95 percentile) [2]: 0.15
- A2: whether the 95 percentile of the last sampling is increased compared with the end point [2]: N
- Total single peptide [3]: 17.4
- A: 95 percentile grouping number score [1]: 4.5
- B: Mouse performance score [1]: 1.7
- C1: #A timing-sequence response peptide fragment set [1]: 257
- C2: #B vaccine specificity peptide fragment set [1]: 682
- C3: Intersection of A and B [1]: 3
- C4: Percentage of the intersection in set B [1]: 0.440
- C: Timing-sequence response and specificity score [1]: 0.5

Sequence: NSVAYSNNS (SARS-CoV-2) [SEQ ID NO:9]
- B1: D 0-D 14 95 percentile rise in the number of mice [1]: 3
- B2: D 0-D 21 95 percentile rise in the number of mice [1]: 3
- B3: D 14-D 21 95 percentile rise in the number of mice [1]: 1
- B4: D 21-D 28 95 percentile rise in the number of mice [1]: 1
- A1: difference between a highest median and a D 0 median (95 percentile) [2]: 0.07
- A2: whether the 95 percentile of the last sampling is increased compared with the end point [2]: N
- Total single peptide [3]: 10.3
- A: 95 percentile grouping number score [1]: 2
- B: Mouse performance score [1]: 1.9
- C1: #A timing-sequence response peptide fragment set [1]: 145
- C2: #B vaccine specificity peptide fragment set [1]: 529
- C3: Intersection of A and B [1]: 1
- C4: Percentage of the intersection in set B [1]: 0.189
- C: Timing-sequence response and specificity score [1]: 0.5

Sequence: NVAKSEFDRDAA [SEQ ID NO:26]
- B1: D 0-D 14 95 percentile rise in the number of mice [1]: 3
- B2: D 0-D 21 95 percentile rise in the number of mice [1]: 3
- B3: D 14-D 21 95 percentile rise in the number of mice [1]: 1
- B4: D 21-D 28 95 percentile rise in the number of mice [1]: 0
- A1: difference between a highest median and a D 0 median (95 percentile) [2]: 0.06
- A2: whether the 95 percentile of the last sampling is increased compared with the end point [2]: N
- Total single peptide [3]: 6.9
- A: 95 percentile grouping number score [1]: 1
- B: Mouse performance score [1]: 1.7
- C1: #A timing-sequence response peptide fragment set [1]: 352
- C2: #B vaccine specificity peptide fragment set [1]: 541
- C3: Intersection of A and B [1]: 1
- C4: Percentage of the intersection in set B [1]: 0.185
- C: Timing-sequence response and specificity score [1]: 0.5

Sequence: PLQPELDSFKEE [SEQ ID NO:37]
- B1: D 0-D 14 95 percentile rise in the number of mice [1]: 3
- B2: D 0-D 21 95 percentile rise in the number of mice [1]: 2
- B3: D 14-D 21 95 percentile rise in the number of mice [1]: 1
- B4: D 21-D 28 95 percentile rise in the number of mice [1]: 1
- A1: difference between a highest median and a D 0 median (95 percentile) [2]: 0.09
- A2: whether the 95 percentile of the last sampling is increased compared with the end point [2]: Y
- Total single peptide [3]: 15.9
- A: 95 percentile grouping number score [1]: 4
- B: Mouse performance score [1]: 1.7
- C1: #A timing-sequence response peptide fragment set [1]: 230
- C2: #B vaccine specificity peptide fragment set [1]: 251
- C3: Intersection of A and B [1]: 1
- C4: Percentage of the intersection in set B [1]: 0.398
- C: Timing-sequence response and specificity score [1]: 0.5
